# Laboratory results published in US11739098B2 (BRISTOL-MYERS SQUIBB COMPANY, priority 2017, dated 2023).
# Legend:
# Assay type in all cases: cell-based
# [1] = biological target: T1, human TLR7 (Homo sapiens, UniProt Q9NYK1); assay: TLR7 inhibition reporter assay (HEK-Blue cells, SEAP reporter, gardiquimod stimulation); details: HEK-Blue cells overexpressing human TLR7, SEAP reporter, gardiquimod 7.5 μM
# T1 construct: host or cells: HEK-Blue cells (HEK293-derived reporter line)
# T1 sequence (Q9NYK1 27-1049): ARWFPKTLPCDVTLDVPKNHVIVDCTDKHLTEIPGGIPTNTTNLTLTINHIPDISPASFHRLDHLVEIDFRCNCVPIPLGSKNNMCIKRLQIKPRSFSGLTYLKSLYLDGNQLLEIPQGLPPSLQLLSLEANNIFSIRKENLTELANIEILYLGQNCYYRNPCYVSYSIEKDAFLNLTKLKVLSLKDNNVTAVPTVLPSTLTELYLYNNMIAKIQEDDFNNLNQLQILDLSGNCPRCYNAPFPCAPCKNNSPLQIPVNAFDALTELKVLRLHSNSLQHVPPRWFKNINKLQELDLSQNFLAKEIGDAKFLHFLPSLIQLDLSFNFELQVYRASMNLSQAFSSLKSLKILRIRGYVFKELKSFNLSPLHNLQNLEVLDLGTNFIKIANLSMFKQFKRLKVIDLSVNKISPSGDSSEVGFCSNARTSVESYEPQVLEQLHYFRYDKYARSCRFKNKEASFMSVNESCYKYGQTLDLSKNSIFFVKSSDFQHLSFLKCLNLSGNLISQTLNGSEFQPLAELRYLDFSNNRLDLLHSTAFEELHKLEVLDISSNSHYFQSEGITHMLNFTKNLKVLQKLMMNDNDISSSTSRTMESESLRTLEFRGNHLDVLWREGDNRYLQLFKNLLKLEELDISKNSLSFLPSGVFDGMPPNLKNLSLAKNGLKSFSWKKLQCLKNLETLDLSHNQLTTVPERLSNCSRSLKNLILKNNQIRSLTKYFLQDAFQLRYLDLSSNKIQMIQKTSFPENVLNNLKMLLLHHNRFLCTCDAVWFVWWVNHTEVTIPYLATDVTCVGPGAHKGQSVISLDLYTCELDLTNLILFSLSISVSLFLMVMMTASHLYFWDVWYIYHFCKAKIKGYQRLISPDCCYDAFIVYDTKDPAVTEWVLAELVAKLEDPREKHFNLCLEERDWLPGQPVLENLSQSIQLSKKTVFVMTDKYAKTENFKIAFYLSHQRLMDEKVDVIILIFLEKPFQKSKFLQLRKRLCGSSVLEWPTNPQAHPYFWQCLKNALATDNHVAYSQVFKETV
# In short: (§1)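 Read-out is SEAP activity in HEK-Blue detection medium after 22 h at 37 °C, converted to percent inhibition against agonist-plus-DMSO and reference-inhibitor controls. Cells saw compound (0.05 nM–50 μM, 30 min, room temperature) before gardiquimod 7.5 μM, R848 15.9 μM or ODN2006 5 nM for TLR7, TLR8 and TLR9, respectively.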
# [2] = biological target: T2, human TLR8 (Homo sapiens, UniProt Q9NR97); assay: TLR8 inhibition reporter assay (HEK-Blue cells, SEAP reporter, R848 stimulation); details: HEK-Blue cells overexpressing human TLR8, SEAP reporter, R848 15.9 μM
# T2 construct: host or cells: HEK-Blue cells (HEK293-derived reporter line)
# T2 sequence (Q9NR97 27-1041): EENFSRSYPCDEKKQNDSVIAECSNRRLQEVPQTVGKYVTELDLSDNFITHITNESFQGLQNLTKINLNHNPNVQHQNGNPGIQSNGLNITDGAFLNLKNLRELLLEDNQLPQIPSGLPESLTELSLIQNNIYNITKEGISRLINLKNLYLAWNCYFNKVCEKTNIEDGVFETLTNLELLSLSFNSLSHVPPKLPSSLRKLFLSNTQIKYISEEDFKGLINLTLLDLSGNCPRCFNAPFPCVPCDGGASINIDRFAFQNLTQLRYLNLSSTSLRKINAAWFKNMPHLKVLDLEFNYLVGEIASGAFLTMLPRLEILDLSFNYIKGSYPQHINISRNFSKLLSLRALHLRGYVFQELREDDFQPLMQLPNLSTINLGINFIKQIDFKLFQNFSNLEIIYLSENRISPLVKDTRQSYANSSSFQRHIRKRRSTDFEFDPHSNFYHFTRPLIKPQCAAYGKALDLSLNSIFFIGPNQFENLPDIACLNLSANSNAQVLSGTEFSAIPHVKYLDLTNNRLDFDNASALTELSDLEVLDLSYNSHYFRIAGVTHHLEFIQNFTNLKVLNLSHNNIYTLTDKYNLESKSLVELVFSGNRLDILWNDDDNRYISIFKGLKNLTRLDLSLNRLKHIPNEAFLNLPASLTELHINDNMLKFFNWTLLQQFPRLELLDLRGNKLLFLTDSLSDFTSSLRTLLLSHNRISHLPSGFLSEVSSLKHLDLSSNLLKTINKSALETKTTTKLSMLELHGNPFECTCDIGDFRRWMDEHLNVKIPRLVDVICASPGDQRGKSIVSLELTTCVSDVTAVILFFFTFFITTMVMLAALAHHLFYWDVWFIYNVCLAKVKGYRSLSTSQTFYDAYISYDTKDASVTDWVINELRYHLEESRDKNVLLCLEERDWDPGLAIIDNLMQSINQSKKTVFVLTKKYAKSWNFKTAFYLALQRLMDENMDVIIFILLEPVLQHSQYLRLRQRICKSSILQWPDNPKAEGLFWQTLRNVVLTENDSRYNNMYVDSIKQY
# In short: as §1
# [3] = biological target: T3, human TLR9 (Homo sapiens, UniProt Q9NR96); assay: TLR9 inhibition reporter assay (HEK-Blue cells, SEAP reporter, ODN2006 stimulation); details: HEK-Blue cells overexpressing human TLR9, SEAP reporter, ODN2006 5 nM
# T3 construct: host or cells: HEK-Blue cells (HEK293-derived reporter line)
# T3 sequence (Q9NR96 26-1032): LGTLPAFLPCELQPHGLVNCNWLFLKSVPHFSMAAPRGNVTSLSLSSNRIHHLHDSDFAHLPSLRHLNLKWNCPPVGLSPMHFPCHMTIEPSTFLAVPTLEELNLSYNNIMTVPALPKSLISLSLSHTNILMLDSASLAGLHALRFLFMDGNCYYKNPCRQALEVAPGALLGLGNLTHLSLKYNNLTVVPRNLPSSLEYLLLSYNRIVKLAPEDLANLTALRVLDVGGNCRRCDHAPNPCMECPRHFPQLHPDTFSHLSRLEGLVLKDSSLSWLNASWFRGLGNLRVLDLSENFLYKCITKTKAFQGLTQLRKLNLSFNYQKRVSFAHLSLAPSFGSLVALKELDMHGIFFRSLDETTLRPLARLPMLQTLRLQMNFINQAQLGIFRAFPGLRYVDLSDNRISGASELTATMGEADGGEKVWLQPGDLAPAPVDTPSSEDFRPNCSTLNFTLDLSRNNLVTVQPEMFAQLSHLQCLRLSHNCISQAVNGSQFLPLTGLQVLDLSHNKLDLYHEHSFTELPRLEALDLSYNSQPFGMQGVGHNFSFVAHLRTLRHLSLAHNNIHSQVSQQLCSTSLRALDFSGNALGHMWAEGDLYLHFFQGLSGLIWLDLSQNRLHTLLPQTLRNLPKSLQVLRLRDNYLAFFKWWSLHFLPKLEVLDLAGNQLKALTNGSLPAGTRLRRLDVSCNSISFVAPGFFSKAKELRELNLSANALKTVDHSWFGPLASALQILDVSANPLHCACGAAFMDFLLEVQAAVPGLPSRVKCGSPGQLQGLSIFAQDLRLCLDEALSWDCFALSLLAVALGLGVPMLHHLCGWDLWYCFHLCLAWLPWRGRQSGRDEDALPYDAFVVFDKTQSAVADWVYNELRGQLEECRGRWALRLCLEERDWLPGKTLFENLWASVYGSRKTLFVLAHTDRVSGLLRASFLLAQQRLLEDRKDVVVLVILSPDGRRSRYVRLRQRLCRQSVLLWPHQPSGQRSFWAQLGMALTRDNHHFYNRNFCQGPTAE
# In short: as §1
IC50 [1] [µM],IC50 [2] [µM],IC50 [3] [µM],Compound
< 0.1,< 0.1,0.1 to 1,"Cc1cc(-c2[nH]c3ccc(C4CCN(C5COC5)CC4)cc3c2C(C)C)cn2ccnc12 [Example 719, 6-(3-isopropyl-5-(1-(oxetan-3-yl)piperidin-4-yl)-1H-indol-2-yl)-8-methylimidazo[1,2-a]pyridine]"
1 to 50,< 0.1,1 to 50,"CC(C)c1c(-c2nc3cnccn3n2)[nH]c2ccc(C3CCNCC3)cc12 [Example 195, 2-(3-isopropyl-5-(piperidin-4-yl)-1H-indol-2-yl)-[1,2,4]triazolo[1,5-a]pyrazine]"
0.1 to 1,0.1 to 1,1 to 50,"Cc1c(-c2ccnc3[nH]ncc23)[nH]c2ccc(C3CCNCC3)cc12 [Example 231, 4-(3-methyl-5-(piperidin-4-yl)-1H-indol-2-yl)-1H-pyrazolo[3,4-b]pyridine]"
< 0.1,0.1 to 1,1 to 50,"CC(C)c1c(-c2ccnc3[nH]ncc23)[nH]c2ccc(C3CCN(C(=O)c4cscn4)CC3)cc12 [Example 611, (4-(3-isopropyl-2-(1H-pyrazolo[3,4-b]pyridin-4-yl)-1H-indol-5-yl)piperidin-1-yl)(thiazol-4-yl)methanone]"
< 0.1,0.1 to 1,1 to 50,"CC(C)c1c(-c2ccc3ncnn3n2)[nH]c2ccc(C3CCN(C4COC4)CC3)cc12 [Example 729, 6-(3-isopropyl-5-(1-(oxetan-3-yl)piperidin-4-yl)-1H-indol-2-yl)-[1,2,4]triazolo[1,5-b]pyridazine]"
< 0.1,0.1 to 1,> 50,"Cc1cc(-c2[nH]c3ccc(C4CCN(C(=O)CCN5CCC(F)(F)C5)CC4)cc3c2C(C)C)cn2nnnc12 [Example 626, 3-(3,3-difluoropyrrolidin-1-yl)-1-(4-(3-isopropyl-2-(8-methyltetrazolo[1,5-a]pyridin-6-yl)-1H-indol-5-yl)piperidin-1-yl)propan-1-one]"
< 0.1,< 0.1,0.1 to 1,"CCN(CC)C(=O)C1CCCN(CC(=O)N2CCC(c3ccc4[nH]c(-c5ccnc6[nH]ncc56)c(C(C)C)c4c3)CC2)C1 (stereo not drawn) [Example 588, N,N-diethyl-1-(2-(4-(3-isopropyl-2-(1H-pyrazolo[3,4-b]pyridin-4-yl)-1H-indol-5-yl)piperidin-1-yl)-2-oxoethyl)piperidine-3-carboxamide]"
0.1 to 1,0.1 to 1,1 to 50,"Cc1cc(-c2[nH]c3ccc(C4CCN(CC(=O)N(C)C)CC4)cc3c2C(C)C)cn2nncc12 [Example 307, 2-(4-(3-isopropyl-2-(4-methyl-[1,2,3]triazolo [1,5-a]pyridin-6-yl)-1H-indol-5-yl)piperidin-1-yl)-N,N-dimethylacetamide]"
< 0.1,< 0.1,1 to 50,"CNC(=O)CN1CCC(c2ccc3[nH]c(-c4cc(OC)n5nc(C)nc5c4)c(C(C)C)c3c2)CC1 [Example 347, 2-(4-(3-isopropyl-2-(5-methoxy-2-methyl-[1,2,4]triazolo[1,5-a]pyridin-7-yl)-1H-indol-5-yl)piperidin-1-yl)-N-methylacetamide]"
< 0.1,< 0.1,1 to 50,"Cc1cc(-c2[nH]c3ccc(C4CCN(Cc5cnn[nH]5)CC4)cc3c2C(C)C)cn2nnnc12 [Example 883, 6-(5-(1-((1H-1,2,3-triazol-5-yl)methyl)piperidin-4-yl)-3-isopropyl-1H-indol-2-yl)-8-methyltetrazolo[1,5-a]pyridine]"
0.1 to 1,1 to 50,1 to 50,"CC(C)c1c(-c2cnc3ccnn3c2)[nH]c2ccc(C3CCN(CC(C)(C)O)CC3)cc12 [Example 759, 1-(4-(3-isopropyl-2-(pyrazolo[1,5-a]pyrimidin-6-yl)-1H-indol-5-yl)piperidin-1-yl)-2-methylpropan-2-ol]"
